The source of these data is patent publication US7226923B2, “Phthalazinone derivatives” (Hoffman-La Roche Inc., priority 2004, dated 2007).

Each structure is given as a SMILES string.

The target of the assay is T1, Aurora A (Homo sapiens, UniProt O14965).
T1 construct: C-terminally Histidine4 (His4)-tagged Aurora A full-length protein
T1 sequence (O14965 1-403): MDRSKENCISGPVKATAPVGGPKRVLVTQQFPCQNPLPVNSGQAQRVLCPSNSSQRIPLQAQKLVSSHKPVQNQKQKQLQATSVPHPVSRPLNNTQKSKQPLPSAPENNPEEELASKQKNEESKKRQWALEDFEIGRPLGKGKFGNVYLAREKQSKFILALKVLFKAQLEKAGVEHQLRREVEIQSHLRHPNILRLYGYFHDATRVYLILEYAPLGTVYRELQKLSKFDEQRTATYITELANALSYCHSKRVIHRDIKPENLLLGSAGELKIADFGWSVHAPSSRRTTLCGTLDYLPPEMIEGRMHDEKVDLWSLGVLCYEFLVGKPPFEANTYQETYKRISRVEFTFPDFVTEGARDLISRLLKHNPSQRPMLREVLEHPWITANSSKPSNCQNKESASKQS
The experiment in a line: IC50 determination for inhibitors of Aurora A (96 MTP-ELISA). The class given is biochemical. Conditions: His4-tagged full-length Aurora A 250 ng/ml, PKB-GSK2 200 nM, ATP 4 μM, 90 min at room temperature, read-out: IC50 Aurora A kinase inhibition. The protocol: IC50 Determination for Inhibitors of Aurora A
• Aurora A is a serine threonine kinase involved in spindle assembly and chromosome segregation.
The assay is a typically ELISA-type assay where biotinylated substrate (PKB-GSK2) is phosphorylated. Phosphorylation is detected by peroxidase (POD) labelled polyclonal antibody (PAK<M-Ig>S-IgG-POD) and phosphopeptide monoclonal antibody (Mab) (MAK<P-GSK>M-27E5-IgG). The assay is validated for IC50-determination.
Method • This assay is performed in 96-well format for IC50 determination with 5 samples (each with 8 concentrations by twofold testing), 100 μl incubation volume and the following plate layout: […]
`Cc1cc(Nc2nn(C(C)C)c(=O)c3cc(CN4CCN(C)CC4)ccc23)n[nH]1` [Example L-1, 2-Isopropyl-7-(4-methyl-piperazin-1-ylmethyl)-4-(5-methyl-1H-pyrazol-3-ylamino)-2H-phthalazin-1-one]: the IC50 was in the range of 1 to 100 nM.

For the compound `COc1ccc(-n2nc(Nc3cc(C)[nH]n3)c3ccccc3c2=O)cc1` [Example A-9, 2-(4-Methoxy-phenyl)-4-(5-methyl-1H-pyrazol-3-ylamino)-2H-phthalazin-1-one], the half-inhibitory concentration (IC50) lay within 1 to 100 nM.

Regarding `Cc1cc(Nc2nn(-c3cccc(C(C)(C)C)c3)c(=O)c3ccccc23)n[nH]1` [Example X-2, 2-(3-tert-Butyl-phenyl)-4-(5-methyl-1H-pyrazol-3-ylamino)-2H-phthalazin-1-one], the IC50 was 1 to 100 nM.

For `COc1ccc2c(Nc3cc(C)[nH]n3)nn(Cc3ccccc3)c(=O)c2c1` [Example G-8, 2-Benzyl-7-methoxy-4-(5-methyl-1H-pyrazol-3-ylamino)-2H-phthalazin-1-one], the half-maximal inhibitory concentration (IC50) is 1 to 100 nM.

With `Cc1cc(Nc2nn(Cc3cccnc3)c(=O)c3ccccc23)[nH]n1` [Example A-18, 4-(5-Methyl-2H-pyrazol-3-ylamino)-2-pyridin-3-ylmethyl-2H-phthalazin-1-one], the IC50 is 1 to 100 nM.

Consider `Cc1cc(Nc2nn(-c3ccc(NS(C)(=O)=O)cc3)c(=O)c3ccccc23)n[nH]1` [Example T-5, N-{4-[4-(5-Methyl-1H-pyrazol-3-ylamino)-1-oxo-1H-phthalazin-2-yl]-phenyl}-methanesulfonamide], for which the concentration for half-maximal inhibition (IC50) fell in the range of 1 to 100 nM.

With `CONC(=O)c1ccc2c(Nc3cc(C)[nH]n3)nn(C(C)C)c(=O)c2c1` [Example M-4, 3-Isopropyl-1-(5-methyl-1H-pyrazol-3-ylamino)-4-oxo-3,4-dihydro-phthalazine-6-carboxylic acid methoxy-amide], the half-inhibitory concentration (IC50) is 1 to 100 nM.

For the compound `COc1ccc(C(=O)Cn2nc(Nc3cc(C)[nH]n3)c3ccccc3c2=O)cc1` [Example E-4, 2-[2-(4-Methoxy-phenyl)-2-oxo-ethyl]-4-(5-methyl-1H-pyrazol-3-ylamino)-2H-phthalazin-1-one], the IC50 was in the range of 1 to 100 nM.

Take `Cc1cc(Nc2nn(-c3ccc(F)cc3)c(=O)c3ccccc23)n[nH]1` [Example A-7, 2-(4-Fluoro-phenyl)-4-(5-methyl-1H-pyrazol-3-ylamino)-2H-phthalazin-1-one]: the IC50 was in the range of 1 to 100 nM.

In the case of `COc1ccc(Cn2nc(Nc3cc(C)[nH]n3)c3ccccc3c2=O)cc1` [Example A-11, 2-(4-Methoxy-benzyl)-4-(5-methyl-1H-pyrazol-3-ylamino)-2H-phthalazin-1-one], the IC50 lay in the range of 1 to 100 nM.

Regarding `Cc1cc(Nc2nn(Cc3cccc(C(=O)O)c3)c(=O)c3ccccc23)n[nH]1` [Example A-24, 3-[4-(5-Methyl-1H-pyrazol-3-ylamino)-1-oxo-1H-phthalazin-2-ylmethyl]-benzoic acid], the IC50 is 1 to 100 nM.

With `COCC(C)n1nc(Nc2cc(C)n[nH]2)c2ccccc2c1=O` (centres unmarked) [Example O-2, 2-(2-Methoxy-1-methyl-ethyl)-4-(5-methyl-2H-pyrazol-3-ylamino)-2H-phthalazin-1-one], the half-inhibitory concentration (IC50) lay in the range of 100 to 1000 nM.

`Cc1cc(Nc2nn(-c3ccc(C(F)(F)F)cc3Cl)c(=O)c3ccccc23)n[nH]1` [Example W-1, 2-(2-Chloro-4-trifluoromethyl-phenyl)-4-(5-methyl-1H-pyrazol-3-ylamino)-2H-phthalazin-1-one]: the IC50 was in the range of 100 to 1000 nM.

As to `Cc1cc(Nc2nn(C(C)C)c(=O)c3cc(N(C)Cc4ccncc4)ccc23)n[nH]1` [Example I-2, 2-Isopropyl-4-(5-methyl-1H-pyrazol-3-ylamino)-7-(methyl-pyridin-4-ylmethyl-amino)-2H-phthalazin-1-one], the IC50 lay within 1 to 100 nM.

Regarding `Cc1cc(Nc2nn(C(C)C)c(=O)c3cc(NCCN4CCOCC4)ccc23)n[nH]1` [Example I-11, 2-Isopropyl-4-(5-methyl-1H-pyrazol-3-ylamino)-7-(2-morpholin-4-yl-ethylamino)-2H-phthalazin-1-one], the IC50 is 1 to 100 nM.

With `Cc1cc(Nc2nn(C(C)C)c(=O)c3cc(N(C)C)ccc23)n[nH]1` [Example F-6, 2-Isopropyl-4-(5-methyl-1H-pyrazol-3-ylamino)-7-dimethylamino-2H-phthalazin-1-one], the 50% inhibitory concentration (IC50) is 1 to 100 nM.

As for `CC(=O)Nc1ccc(Cn2nc(Nc3cc[nH]n3)c3ccccc3c2=O)cc1` [Example D-2, N-{4-[1-Oxo-4-(1H-pyrazol-3-ylamino)-1H-phthalazin-2-ylmethyl]-phenyl}-acetamide], the IC50 amounted to 555 nM.

For the compound `Cc1cc(Nc2nn(-c3ccc4ccccc4c3)c(=O)c3ccccc23)n[nH]1` [Example R-3, 4-(5-Methyl-1H-pyrazol-3-ylamino)-2-naphthalen-2-yl-2H-phthalazin-1-one], the IC50 was 1 to 100 nM.

`CCOC(=O)Nc1ccc(-n2nc(Nc3cc(C)[nH]n3)c3ccccc3c2=O)cc1` [Example Y-2, {4-[4-(5-Methyl-1H-pyrazol-3-ylamino)-1-oxo-1H-phthalazin-2-yl]-phenyl}-carbamic acid ethyl ester]: the IC50 lay in the range of 1 to 100 nM.

Consider `Cc1cc(Nc2nn(C(C)C)c(=O)c3ccccc23)n[nH]1` [Example A-23, 2-Isopropyl-4-(5-methyl-1H-pyrazol-3-ylamino)-2H-phthalazin-1-one], for which the concentration for half-maximal inhibition (IC50) was 1 to 100 nM.

On to `CNc1ccc2c(Nc3cc(C)[nH]n3)nn(C(C)C)c(=O)c2c1` [Example I-12, 2-Isopropyl-7-methylamino-4-(5-methyl-1H-pyrazol-3-ylamino)-2H-phthalazin-1-one], for which the half-inhibitory concentration (IC50) is 1 to 100 nM.

On to `CC(=O)N(C)c1ccc2c(Nc3cc(C)[nH]n3)nn(C(C)C)c(=O)c2c1` [Example I-5, N-[3-Isopropyl-1-(5-methyl-1H-pyrazol-3-ylamino)-4-oxo-3,4-dihydro-phthalazin-6-yl]-N-methyl-acetamide], for which the IC50 lay within 1 to 100 nM.

For `Cc1cc(Nc2nn(C(C)C)c(=O)c3cc(S(C)(=O)=O)ccc23)n[nH]1` [Example H-2, 2-Isopropyl-7-methanesulfonyl-4-(5-methyl-1H-pyrazol-3-ylamino)-2H-phthalazin-1-one], the IC50 fell in the range of 1 to 100 nM.

Turning to `Cc1cc(Nc2nn(C(C)C)c(=O)c3ccc(N(C)C)cc23)n[nH]1` [Example F-7, 2-Isopropyl-4-(5-methyl-1H-pyrazol-3-ylamino)-6-dimethylamino-2H-phthalazin-1-one], the concentration for half-maximal inhibition (IC50) lay in the range of 100 to 1000 nM.

As for `Cc1ccc(-n2nc(Nc3cc[nH]n3)c3ccccc3c2=O)cc1` [Example A-10, 4-(1H-Pyrazol-3-ylamino)-2-p-tolyl-2H-phthalazin-1-one], the IC50 fell in the range of 100 to 1000 nM.

Turning to `Cc1cc(Nc2nn(-c3ccc(-c4ccccc4C)cc3)c(=O)c3ccccc23)n[nH]1` [Example Q-2, 2-(2′-Methyl-biphenyl-4-yl)-4-(5-methyl-1H-pyrazol-3-ylamino)-2H-phthalazin-1-one], the concentration for half-maximal inhibition (IC50) was in the range of 1 to 100 nM.

In the case of `Cc1cc(Nc2nn(C(C)C)c(=O)c3cc(C(=O)O)ccc23)n[nH]1` [Example M-1, 3-Isopropyl-1-(5-methyl-1H-pyrazol-3-ylamino)-4-oxo-3,4-dihydro-phthalazine-6-carboxylic acid], the IC50 is 1 to 100 nM.

In the case of `CC(=O)Nc1ccc(-n2nc(Nc3cc(C)[nH]n3)c3ccccc3c2=O)cc1` [Example T-1, N-{4-[4-(5-Methyl-1H-pyrazol-3-ylamino)-1-oxo-1H-phthalazin-2-yl]-phenyl}-acetamide], the IC50 lay within 100 to 1000 nM.

For the compound `Cc1cc(Nc2nn(Cc3ccc(S(C)(=O)=O)cc3)c(=O)c3ccccc23)[nH]n1` [Example A-14, 2-(4-Methanesulfonyl-benzyl)-4-(5-methyl-2H-pyrazol-3-ylamino)-2H-phthalazin-1-one], the IC50 is 1 to 100 nM.
